# Results reported in patent publication US6528516B1, “Methods for reducing intraocular pressure using A3 adenosine receptor antagonists” (Trustees of the University of Pennsylvania, The Center for …, priority 1998, dated 2003).
# pKi: −log10 of the molar value. Entries after “also recorded” stand apart in the source; their conditions may differ.
# Legend:
# [1] = biological target: T1, human A3 receptor (Homo sapiens, UniProt P0DMS8); assay: Radioligand binding, [125I]AB-MECA, HEK-293 cell membranes; set-up: host or cells: HEK-293; conditions: read-out: Ki(hA3)
# T1 sequence (P0DMS8 1-318): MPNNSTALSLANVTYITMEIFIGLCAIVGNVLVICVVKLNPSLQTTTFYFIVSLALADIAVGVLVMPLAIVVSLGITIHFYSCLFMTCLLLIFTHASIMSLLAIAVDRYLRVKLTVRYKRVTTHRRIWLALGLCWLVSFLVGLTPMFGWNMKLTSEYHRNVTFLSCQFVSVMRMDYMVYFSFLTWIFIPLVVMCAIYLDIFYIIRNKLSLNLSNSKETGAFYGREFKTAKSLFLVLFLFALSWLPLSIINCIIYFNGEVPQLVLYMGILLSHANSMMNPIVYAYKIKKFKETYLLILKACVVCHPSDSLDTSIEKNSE
# Experimental: Natl. Acad. Sci. […] Natl. Acad. Sci. U.S.A. 89:7432-7436, 1992) was performed as described at 4° C. (Olah et al., Mol. Pharmacol. 45:978-982, 1994). The assay medium consisted of a buffer containing 10 mM Mg^2+, 50 mM Tris, 3 units/mL adenosine deaminase, and 1 mM EDTA, at pH 8.0 (4° C.). […] Incubations were terminated by rapid filtration over Whatman GF/B filters, using a Brandell cell harvester (Brandell, Gaithersburg, MD). The tubes were rinsed three times with 3 mL buffer each. At least five different concentrations of competitor, spanning 3 orders of magnitude adjusted appropriately for the IC50 of each compound, were used. IC50 values, calculated with the nonlinear regression method implemented in the InPlot program (Graph-PAD, San Diego, Calif.), were converted to apparent Ki values using the Cheng-Prusoff equation (Cheng et al., Biochem.
# [2] = tested on: bovine pigmented ciliary epithelial (PE) cells; assay: Cell volume (shrinkage) of PE cells in isoosmotic suspension, Coulter Counter; type: cell-based; conditions: for effect of estradiol on shrinkage produced by ATP and tamoxifen: 100 nM estradiol; for effect of estradiol on cell volume in the absence of tamoxifen: 100 nM, FIG. 16B; for effect of PKC modulator on cell volume in the presence of ATP: 0.3 μM staurosporine, 250 μM DiC8; for effect of agent on shrinkage in the presence of ATP / shrinkage by agent in the presence or absence of ATP: 10 μM agent; for shrinkage by agent in the presence or absence of ATP: with or without 100 μM ATP
# [3] = tested on: HCE (human ciliary epithelial) cell line, NPE cells; assay: Cell volume (shrinkage) of NPE cells in isosmotic solution, Coulter Counter, 5 μM gramicidin; type: cell-based
# Experimental: A 0.5-ml aliquot of the HCE cell suspension in DMEM was added to 20 ml of each test solution, which contained (in mM): 110.0 NaCl, 15.0HEPES [4-(2-hydroxyethyl)-1-piperazineethanesulfonic acid], 2.5 CaCl2, 1.2 MgCl2, 4.7 KCl, 1.2 KH2PO4, 30.0 NaHCO3, and 10.0 glucose, at a pH of 7.4 and osmolality of 298-305 mOsm. Parallel aliquots of cells were studied on the same day. One aliquot usually served as a control, and the others were exposed to different experimental conditions at the time of suspension. The same amount of solvent vehicle (dimethylformamide, DMSO or ethanol) was always added to the control and experimental aliquots. The sequence of studying the suspensions was varied to preclude systematic time-dependent artifacts (Civan et al., Exp. Eye Res. 54:181-191, 1992).
# Cell volumes of isosmotic suspensions were measured with a Coulter Counter (model ZBI-Channelyzer II), using a 100-μm aperture (Civan et al., supra., 1994). As previously described (Wax et al., supra., 1993), the cell volume (vC) of the suspension was taken as the peak of the distribution function. Cell shrinkage was fit as a function of time (t) to a monoexponential function:
# vC=v∞+(v0−v∞)−[e^−(t−t^0^)/τ] {1}
# where v∞ is the steady-state cell volume, v0 is the cell volume at the first point (t0) of the time course to be fit, and τ is the time constant of the shrinkage. For purposes of data reduction, the data were normalized to the first time point, taken to be 100% isotonic volume. Fits were obtained by nonlinear least-squares regression analysis, permitting both v∞and τ to be variables.
# In order to differentiate among these receptors, the experiments were repeated in the present study using a series of agonists and antagonists selective for these receptors. As we wished to identify the effects of these receptors specifically on Cl^− channels, 5 μM gramicidin D was included in all solutions to eliminate any potential contribution from K^+ channels. This ionophore readily partitions into plasma membranes to form a cation-selective pore, and is widely used for studying volume regulation (Hoffmann et al., in Interaction of Cell Volume and Cell Function, Lang et al., eds., Springer, Heidelberg, Germany, pp. 188-248, (ACEP Series 14), 1993)). Under these conditions, release of cell Cl^− becomes the rate-limiting factor in both hypo-(Civan et al., Exp. Eye Res. 54:181-191, 1992) and isoosmotic cell shrinkage (Carre et al., supra., 1997).
# [4] = 100 μM ATP + 10 μM agent, FIG. 13A
# [5] = 10 μM trifluoperazine alone, FIG. 14B
# [6] = 100 μM ATP + 10 μM TMX + 10 μM trifluoperazine, FIG. 14A
# [7] = 100 μM ATP + 10 μM agent, FIG. 14A
# [8] = 100 μM ATP + 10 μM trifluoperazine, FIG. 14B
# [9] = FIG. 2D, 100 nM Cl-IB-MECA, IB-MECA in parallel
compound,measurement,setting,value
"CCCCc1c(C(=O)SCC)c(CC)c(C(=O)OCC)c(-c2ccccc2)[n+]1C [Compound 20, 1-Methyl-2-butyl-4-ethyl-3-(ethylsulfanylcarbonyl)-5-ethyloxycarbonyl-6-phenylpyridinium Iodide]",pKi,[1],6.36
"CCCOC(=O)c1c(CCC)c(C(=O)SCC)c(CC)[n+](C)c1-c1ccccc1 [Compound 16, 1-Methyl-2-ethyl-4-propyl-3-(ethylsulfanylcarbonyl)-5-propyloxycarbonyl-6-phenylpyridinium Iodide]",pKi,[1],5.69
C[C@]12CC[C@@H]3c4ccc(O)cc4CC[C@H]3[C@@H]1CC[C@@H]2O [17β-estradiol],effect of estradiol together with ATP on cell volume,"[2]; 100 nM 17β-estradiol, 100 μM ATP",small and slow shrinkage
same,effect of estradiol on shrinkage produced by ATP and tamoxifen,"[2]; 100 μM ATP, 10 μM tamoxifen",reduced; also recorded: significantly inhibited
same,effect of estradiol on cell volume in the absence of tamoxifen,[2],very small effects
"CCCOC(=O)c1c(CCC)c(C(=O)SCCCF)c(CC)[n+](C)c1-c1ccccc1 [Compound 17, 1-Methyl-2-ethyl-4-propyl-3-(3-fluoropropylsulfanylcarbonyl)-5-propyloxycarbonyl-6-phenylpyridinium Iodide]",pKi,[1],6.33
"O=S(=O)(O)c1cc(N=C=S)ccc1C=Cc1ccc(N=C=S)cc1S(=O)(=O)O [DIDS, 4,4′-diisothiocyano-2,2′-disulfonic acid]","effect of Cl− channel blocker on ATP, tamoxifen-activated shrinkage","[2]; DIDS 500 μM, NPPB 100 μM",inhibited the volume reduction; also recorded: reduced
CCOC(=O)c1c(CCN2C(=O)c3ccccc3C2=O)c(C(=O)SCC)c(CC)[n+](C)c1-c1ccccc1 [Compound 19],pKi,[1],5.90
"CCCOC(=O)c1c(CCC)c(C(=O)SCC)c(CCOCc2ccccc2)[n+](C)c1-c1ccccc1 [Compound 22, 1-Methyl-2-(2-benzyloxylethyl)-4-propyl-3-(ethylsulfanylcarbonyl)-5-propyloxycarbonyl-6-phenylpyridinium Iodide]",pKi,[1],6.46
"CCCOC(=O)c1c(CC)c(C(=O)SCC)c(CC)[n+](C)c1-c1ccccc1 [Compound 15, 1-Methyl-2-ethyl-4-ethyl-3-(ethylsulfanylcarbonyl)-5-propyloxycarbonyl-6-phenylpyridinium Iodide]",pKi,[1],6.32
CN[C@@H]1C[C@H]2O[C@@](C)([C@@H]1OC)n1c3ccccc3c3c4c(c5c6ccccc6n2c5c31)C(=O)NC4 [staurosporine],effect of PKC modulator on cell volume in the presence of ATP,[2]; 100 μM ATP,"small, insignificant shrinkage"
CCSC(=O)c1c(CC)c(C(=O)OCCF)c(-c2ccccc2)[n+](C)c1CC [Compound 14],pKi,[1],6.44
CCCCCCCC(=O)OCC(CO)OC(=O)CCCCCCC (stereo not shown) [DiC8],effect of PKC modulator on cell volume in the presence of ATP,[2]; 100 μM ATP,no significant effect
"OC[C@H]1O[C@@H](n2cnc3c(NC4CCCC4)ncnc32)[C@H](O)[C@@H]1O [CPA, N^6-cyclopentyladenosine]",effect of adenosine-receptor agonist on isoosmotic volume,[3]; 30 nM agonist,no significant shrinkage
same,effect of adenosine-receptor agonist on isoosmotic volume,[3]; 100 nM agonist,small slow effect of uncertain significance; also recorded: little effect
same,effect of adenosine-receptor agonist on isoosmotic volume,[3]; 1 μM agonist,no significant shrinkage
same,effect of adenosine-receptor agonist on isoosmotic volume,[3]; 3 μM agonist,no significant shrinkage; also recorded: none at all
C[N+](C)(C)CCOC(N)=O [carbachol],effect of agent on shrinkage in the presence of ATP,"[2]; 100 μM ATP, FIG. 13A",did trigger a prompt shrinkage; also recorded: enhanced shrinkage
same,shrinkage by agent in the presence or absence of ATP,[2],nearly the same degree of shrinkage in the presence or absence of 100 μM ATP; also recorded: reduced cell volume on their own
same,steady-state cell volume (v∞),[2]; [4],94.2±0.4%
same,time constant of the shrinkage (τ),[2]; [4],5.6 ± 1.2 min
"CCOC(=O)c1c(CC)c(C(=O)SCC)c(CC)[n+](CC)c1-c1ccccc1 [Compound 12, 1-Ethyl-2,4-diethyl-3-(ethylsufanylcarbonyl)-5-ethyloxycarbonyl-6-phenylpyridinium Iodide]",pKi,[1],6.24
"CCCOC(=O)c1c(CCSC(C)=O)c(C(=O)SCC)c(CC)[n+](C)c1-c1ccccc1 [Compound 18, 1-Methyl-2-ethyl-4-(2-acetylthioethyl)-3-(ethylsulfanylcarbonyl)-5-propyloxycarbonyl-6-phenylpyridinium Iodide]",pKi,[1],6.27
"CCC[n+]1c(CC)c(C(=O)SCC)c(CC)c(C(=O)OCC)c1-c1ccccc1 [Compound 13, 1-Propyl-2,4-diethyl-3-(ethylsulfanylcarbonyl)-5-ethyloxycarbonyl-6-phenylpyridinium Iodide]",pKi,[1],5.87
"CCOC(=O)c1c(CC)c(C(=O)SCC)c(C)[n+](C)c1-c1ccccc1 [Compound 10, 1-Methyl-2-methyl-4-ethyl-3-(ethylsulfanylcarbonyl)-5-ethyloxycarbonyl-6-phenylpyridinium Iodide]",pKi,[1],6.42
NCCc1c[nH]cn1 [histamine],effect of agent on shrinkage in the presence of ATP,"[2]; 100 μM ATP, FIG. 13A",did not enhance the volumetric response
same,steady-state cell volume (v∞),[2]; [4],97.4±0.5%
same,time constant of the shrinkage (τ),[2]; [4],21.0 ± 8.0 min
CN1CCN(CCCN2c3ccccc3Sc3ccc(C(F)(F)F)cc32)CC1 [trifluoperazine],shrinkage by agent in the presence or absence of ATP,[2],"the same, whether or not ATP was present; also recorded: reduced cell volume on their own"
same,steady-state cell volume (v∞),[2]; [5],96.8±0.2%
same,time constant of the shrinkage (τ),[2]; [5],0.9 ± 0.6 min
same,effect of trifluoperazine on shrinkage produced by ATP alone,"[2]; 10 μM trifluoperazine, 100 μM ATP",enhanced the shrinkage produced by ATP alone
same,effect of trifluoperazine on the response to ATP+TMX,"[2]; 10 μM trifluoperazine, 100 μM ATP, 10 μM tamoxifen",reduced the response
same,steady-state cell volume (v∞),[2]; [6],95.7±0.4%
same,time constant of the shrinkage (τ),[2]; [6],3.9 ± 1.2 min
same,steady-state cell volume (v∞),[2]; [7],96.2±0.3%
same,time constant of the shrinkage (τ),[2]; [7],6.8 ± 1.4 min
same,steady-state cell volume (v∞),[2]; [8],96.7±0.3%
same,time constant of the shrinkage (τ),[2]; [8],0.5 ± 1.5 min
CNC(=O)[C@H]1O[C@@H](n2cnc3c(NCc4cccc(I)c4)nc(Cl)nc32)[C@H](O)[C@@H]1O [Cl-IB-MECA],steady-state cell volume (V∞),[3]; [9],97.9±0.2%
same,time constant of the shrinkage (τ),[3]; [9],2.5 ± 1.3 min
C[C@]12CC[C@@H]3c4ccc(O)cc4CC[C@H]3[C@@H]1CC[C@H]2O [17α-estradiol],effect of estradiol on shrinkage produced by ATP and tamoxifen,"[2]; 100 μM ATP, 10 μM tamoxifen",no significant effect
same,effect of estradiol on cell volume in the absence of tamoxifen,[2],very small effects
"CCNC(=O)[C@H]1O[C@@H](n2cnc3c(N)nc(NCCc4ccc(CCC(=O)O)cc4)nc32)[C@H](O)[C@@H]1O [CGS-21680, 2-[4-[(2-carboxyethyl)phenyl]ethylamino]-5′-N-ethylcarbamoyladenosine]",effect of adenosine-receptor agonist on isoosmotic volume,[3]; 100 nM agonist,no detectable effect
same,effect of adenosine-receptor agonist on isoosmotic volume,[3]; 3 μM agonist,triggered isoosmotic shrinkage
"CCOC(=O)c1c(CC)c(C(=O)SCC)c(C2CCC2)[n+](C)c1-c1ccccc1 [Compound 21, 1-Methyl-2-cyclobutyl-4-ethyl-3-(ethylsulfanylcarbonyl)-5-ethyloxycarbonyl-6-phenyl pyridinium Iodide]",pKi,[1],5.85
